Tests used:
Botrytis cinerea = Botrytis cinerea radial growth bioassay with volatile compounds, no direct contact; type: cell-based; conditions: for effect on B.c. radial growth: pure compound 6, 30 and 61 μL, four strains, PDA
Method: PHBV and PEA microparticle synthesis was done by double emulsion/evaporation. Experimentally, 15 mg of PEA were added to 50 mg/mL PHBV solution in dichloromethane, and then 30 μL of distilled water. This mixture was emulsified with a homogenizer at 35,000 rpm during 30 seconds. To this emulsion, a 5% w/v polyvinyl alcohol was added, and it was homogenized at 35.000 rpm for 30 seconds. The result of this double emulsion was put in an orbital shaker for 12 hours at 100 rpm. Once the solvent evaporated, the microparticles were isolated by centrifugation, washed with distilled water and lyophilized. Subsequently, the assays described below were done.
The experimental model consisted in testing in vitro both the pure and microencapsulated phenylethylalcohol (PEA) volatile compound effect in B.c. The reporting parameter was radial growth and the volatile compound doses were determined with in vitro assays (bioassays). To do this, four different Botrytis strains were exposed to the pure compound, but without direct contact between compound and microorganism.
Bioassays were done in hermetic containers during 6 days at 4° C. (simulating storage conditions). It was previously determined that, for all the strains in study, they were able to cover almost completely the maximum container area (33 mm diameter), in 6 days. The hermetic container was assembled in such a way that there is no physical contact between the evaluated compounds and B.c, in any circumstances.
Radial growth was quantified in three independent experimental groups, which were assayed using potato dextrose agar (PDA) as nutritive support and, after the established culture conditions, initial inoculum growth diameter was determined as 7 mm (disk with actively growing B.c. using PDA as support). The first group was assayed in the container, in absence of a volatile compound and was used as control group (n=4). The second group was assayed challenging the B.c. inoculum with different PEA quantities (6, 30 y 61 μL), separately, with the same culture conditions (n=4). Finally, the third group was assayed like the second group, but with PHBV microencapsulated PEA in defined concentrations (n=2).

Botrytis cinerea spores = test: Botrytis cinerea spore (conidia) germination assay; type: cell-based; conditions: pure PEA; 14 hours at 4° C.; absorbance 570 nm
Method: In this point, the PEA volatile compound effect was tested in B.c. spores germination. The assay consisted in inoculate B.c. spores in 100 μL of malt yeast nutritive media (ML, 0.3% malt and 0.2% yeast extract), using 40 μL of a B.c. spore suspension with a 10^5 spores/mL concentration. Resuspended spores in ML media were transferred to sterile multiwall plates (140 μL/well) and then these plates were put in a hermetic and sealed container during a definite time, in dark and at 4° C. The necessary time to detect maximum germination was experimentally determined by conducting a germination kinetic assay for each B.c. strain. Measurements were done every 2 hours up until 16 hours, thus finding the maximum germination between 14 and 16 hours. The methodology used in the laboratory consisted in a spore fixation/staining process in each well, using trichloroacetic acid and sulphododamyne B, that allowed for a direct correlation between the obtained absorbance values (at 570 nm) with germinated spore number. The first experimental group was assayed without volatile compounds and was used as control (n=4), the experiment was done in sealed hermetic containers at 4° C. for 14 hours (100% of spore germination).

Compound	effect on B.c. radial growth, statistics (ANOVA, TUKEY, p<0.05) (Botrytis cinerea; 30 and 61 μL doses, all strains, 6 days at 4° C.)	B.c. growth at higher doses (Botrytis cinerea; doses higher than 61 μL, 6 days)	effect on B.c. radial growth (Botrytis cinerea; 6 days at 4° C.)	effect on Botrytis conidia germination (Botrytis cinerea spores)
OCCc1ccccc1 [PEA, phenylethylalcohol]	statistically significant effect in all of the strains	not a measurable growth after 6 days	has an inhibiting effect in all the assayed B.c. strains	does not inhibit Botrytis conidia germination in the same way that it inhibited micellium growth
CCCCCC1CCCC(=O)O1 (stereo not drawn) [d-Lac, delta-decalactone]	–	–	does not present a statistically significative effect	–
